Measured values as given in publication PMC8228600, “Design, Synthesis, In Vitro and In Vivo Evaluation of Heterobivalent SiFAlin-Modified Peptidic Radioligands Targeting Both Integrin αvβ3 and the MC1 Receptor—Suitable for the Specific Visualization of Melanomas?” (Pharmaceuticals, 2021).

Legend:
[1] = Stability of radiotracers in human serum (radio-HPLC); type: in vitro ADME; settings: 37 °C, 120 min, mean ± SD, read-out: Stability: intact radiotracer after 120 min of incubation in human serum
Protocol: In addition to the investigation of the radiotracers’ lipophilicity, their stability in human serum was evaluated in order to determine possible stability issues of the newly developed agents. For this purpose, the respective ^18F-labeled HBPLs were incubated in human serum at 37 °C for 120 min. The results of these experiments are summarized in Table 1, and the corresponding radio-HPLC chromatograms for [^18F]2 as representative examples for all compounds studied are depicted in Figure 3A (see Supplementary Materials, Figure S91 for the results obtained for the other radioligands). In Figure 3B, the portions of intact radiotracer over the course of the stability experiments are depicted.
The radiotracer solutions were first diluted with 0.9% NaCl solution to give a final EtOH concentration of <10%. Then, 6 × 25 μL radiotracer solution was added to 6 × 100 μL human serum and incubated at 37°C for 120 min. At defined time points (5, 15, 30, 60, 90 and 120 min), 125 μL EtOH was added to one of the mixtures and the precipitation of serum proteins was supported by ice-cooling for 2 min. After centrifugation at 13.4 rpm for 2 min, the supernatant was analyzed by analytical radio-HPLC (0–100% MeCN + 0.1% TFA in 5 min). The experiment was performed for each compound trice by three independent experiments.

[2] = logD(7.4) determination (n-octanol / phosphate buffer distribution); type: physicochemical; settings: n-octanol / 0.05 M phosphate buffer pH 7.4; mean ± SD
Protocol: Since high lipophilicity of peptidic radiotracers can lead to a high plasma protein binding, resulting in unspecific organ and high liver uptakes, thus negatively impact tumor visualization, the lipophilicity of the HBPLs was determined to get an approximate estimation of the in vivo biodistribution behavior of the radioligands. Therefore, the logD(7.4) values of the SiFAlin-modified HBPLs [^18F]1–[^18F]6 were determined via their distribution coefficient between n-octanol and phosphate buffer at pH 7.4.
The radiotracer solutions were first diluted with 0.9% NaCl solution to give a final EtOH concentration of <10%. A total of 5 MBq of the respective radiotracer in solution was added to 1.6 mL of a mixture of n-octanol and 0.05 M phosphate buffer (pH = 7.4) (v/v, 1/1), and the solution was vigorously shaken for 5 min. Subsequently, the phases were separated by centrifugation at 13.4 rpm for 2 min, and 100 μL of organic and aqueous phases were collected. The activity of each sample was measured using a gamma counter. The lipophilicity of each compound was determined in triplicate in three independent experiments.

| SMILES | remaining at 2 h [1] [%] | logD [2] |
| --- | --- | --- |
| CCCC[C@H](NC(=O)CNC(=O)CNC(=O)COCC(=O)NCCCN(CCCNC(=O)COCC(=O)NCCCC[C@@H]1NC(=O)[C@@H](Cc2ccccc2)NC(=O)[C@H](CC(=O)O)NC(=O)CNC(=O)[C@H](CCCNC(=N)N)NC1=O)CC(=O)N[C@@H](CCCCNC(=O)CCC[N+](C)(C)Cc1ccc([Si](F)(C(C)(C)C)C(C)(C)C)cc1)C(N)=O)C(=O)N[C@H]1CC(=O)NCCCC[C@@H](C(N)=O)NC(=O)[C@H](Cc2c[nH]c3ccccc23)NC(=O)[C@H](CCCNC(=N)N)NC(=O)[C@@H](Cc2ccccc2)NC(=O)[C@H](Cc2c[nH]cn2)NC1=O [[^18F]5] | 83.2 ± 2.4 | -1.21 ± 0.01 |
| CCCC[C@H](NC(=O)CNC(=O)CNC(=O)[C@H](CCC(=O)O)NC(=O)CNC(=O)[C@H](CCC(=O)O)NC(=O)CNC(=O)[C@H](CCC(=O)O)NC(=O)C(=O)NCCCN(CCCNC(=O)C(=O)N[C@@H](CCC(=O)O)C(=O)NCC(=O)N[C@@H](CCC(=O)O)C(=O)NCC(=O)N[C@@H](CCC(=O)O)C(=O)NCCCC[C@@H]1NC(=O)[C@@H](Cc2ccccc2)NC(=O)[C@H](CC(=O)O)NC(=O)CNC(=O)[C@H](CCCNC(=N)N)NC1=O)CC(=O)N[C@@H](CCCCNC(=O)CCC[N+](C)(C)Cc1ccc([Si](F)(C(C)(C)C)C(C)(C)C)cc1)C(N)=O)C(=O)N[C@H]1CC(=O)NCCCC[C@@H](C(N)=O)NC(=O)[C@H](Cc2c[nH]c3ccccc23)NC(=O)[C@H](CCCNC(=N)N)NC(=O)[C@@H](Cc2ccccc2)NC(=O)[C@H](Cc2c[nH]cn2)NC1=O [[^18F]6] | 82.7 ± 1.8 | -1.52 ± 0.01 |
| CCCC[C@H](NC(=O)CNC(=O)CNC(=O)CCOCCOCCC(=O)NCCCN(CCCNC(=O)CCOCCOCCC(=O)NCCCC[C@@H]1NC(=O)[C@@H](Cc2ccccc2)NC(=O)[C@H](CC(=O)O)NC(=O)CNC(=O)[C@H](CCCNC(=N)N)NC1=O)CC(=O)N[C@@H](CCCCNC(=O)CCC[N+](C)(C)Cc1ccc([Si](F)(C(C)(C)C)C(C)(C)C)cc1)C(N)=O)C(=O)N[C@H]1CC(=O)NCCCC[C@@H](C(N)=O)NC(=O)[C@H](Cc2c[nH]c3ccccc23)NC(=O)[C@H](CCCNC(=N)N)NC(=O)[C@@H](Cc2ccccc2)NC(=O)[C@H](Cc2c[nH]cn2)NC1=O [[^18F]1] | 87 ± 2.3 | -1.08 ± 0.07 |
| CCCC[C@H](NC(=O)CNC(=O)CNC(=O)CCOCCOCCOCCOCCOCCOCCC(=O)NCCCN(CCCNC(=O)CCOCCOCCOCCOCCOCCOCCC(=O)NCCCC[C@@H]1NC(=O)[C@@H](Cc2ccccc2)NC(=O)[C@H](CC(=O)O)NC(=O)CNC(=O)[C@H](CCCNC(=N)N)NC1=O)CC(=O)N[C@@H](CCCCNC(=O)CCC[N+](C)(C)Cc1ccc([Si](F)(C(C)(C)C)C(C)(C)C)cc1)C(N)=O)C(=O)N[C@H]1CC(=O)NCCCC[C@@H](C(N)=O)NC(=O)[C@H](Cc2c[nH]c3ccccc23)NC(=O)[C@H](CCCNC(=N)N)NC(=O)[C@@H](Cc2ccccc2)NC(=O)[C@H](Cc2c[nH]cn2)NC1=O [[^18F]3] | 81.4 ± 2.9 | -1.15 ± 0.01 |
